Results as given in the supplement of paper PMC10307832.

Assays:
Assay in all cases: relative viability (nuclei count vs DMSO), 5 days (fraction); higher = more cells survive
[1] = compound: C=CC(=O)Nc1cc(-n2c(=O)ccc3cnc4ccc(-c5ccc(NS(C)(=O)=O)cc5)cc4c32)ccc1C [BMX-IN-1] + N=C(N)NC(=N)NCCc1ccccc1 [Phenformin] (partner 250 µM)
Procedure, shortened: (§1)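 Medians of duplicate plates are given as relative viability. That measure is the nuclei count in treated wells divided by the count in vehicle wells. Counts were taken on 4× images of lung cancer cell lines in 1536-well plates, 5 days after pin-tool dosing the day after seeding with one drug alone or a fixed anchor-drug dose plus five library-drug doses (not always all listed) in √10 steps.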

[2] = compound: C=CCc1cccc(/C=N/NC(=O)CN2CCN(Cc3ccccc3)CC2)c1O [PAC-1] + Nc1nc2[nH]cc(CCc3ccc(C(=O)N[C@@H](CCC(=O)O)C(=O)O)cc3)c2c(=O)[nH]1 [Pemetrexed] (partner 0.2 µM)
Procedure, shortened: as §1

[3] = compound: C=CC(=O)Nc1cc(-n2c(=O)ccc3cnc4ccc(-c5ccc(NS(C)(=O)=O)cc5)cc4c32)ccc1C [BMX-IN-1] + Nc1nc2[nH]cc(CCc3ccc(C(=O)N[C@@H](CCC(=O)O)C(=O)O)cc3)c2c(=O)[nH]1 [Pemetrexed] (partner 0.2 µM)
Procedure, shortened: as §1

[4] = compound: C=CC(=O)N1CCC[C@@H](n2nc(-c3ccc(Oc4ccccc4)cc3)c3c(N)ncnc32)C1 [Ibrutinib] + Cc1cc(Nc2cc(N3CCN(C)CC3)nc(Sc3ccc(NC(=O)C4CC4)cc3)n2)n[nH]1 [Tozasertib] (partner 0.1 µM)
Procedure, shortened: as §1

Cell Line | relative viability ([1]; first compound 0.02 µM) | relative viability ([1]; first compound 0.2 µM) | relative viability ([1]; first compound 0.6325 µM) | relative viability ([1]; first compound 2 µM) | relative viability ([2]; first compound 0.02 µM) | relative viability ([2]; first compound 0.06325 µM) | relative viability ([2]; first compound 0.2 µM) | relative viability ([2]; first compound 2 µM) | relative viability ([3]; first compound 0.02 µM) | relative viability ([3]; first compound 0.2 µM) | relative viability ([3]; first compound 0.6325 µM) | relative viability ([3]; first compound 2 µM) | relative viability ([4]; first compound 0.005 µM) | relative viability ([4]; first compound 0.01581 µM) | relative viability ([4]; first compound 0.05 µM) | relative viability ([4]; first compound 0.1581 µM) | relative viability ([4]; first compound 0.5 µM)
NCI-H1944 | 0.2 | 0.219 | 0.234 | 0.205 | 0.595 | 0.65 | 0.623 | 0.627 | 0.632 | 0.746 | 0.603 | 0.592 | 0.247 | 0.217 | 0.21 | 0.24 | 0.198
NCI-H1915 | 0.32 | 0.387 | 0.389 | 0.37 | 0.552 | 0.471 | 0.471 | 0.473 | 0.585 | 0.522 | 0.484 | 0.396 | 0.498 | 0.439 | 0.447 | 0.485 | 0.428
BEN | 0.264 | 0.259 | 0.273 | 0.254 | 0.719 | 0.74 | 0.718 | 0.655 | 0.701 | 0.768 | 0.866 | 0.708 |  | 0.459 | 0.471 | 0.561 | 0.536
H3255 | 0.327 | 0.357 | 0.782 | 0.374 | 0.601 | 0.521 | 0.495 | 0.596 | 0.52 | 0.583 | 0.686 | 0.563 | 0.729 | 0.615 | 0.581 | 0.672 | 0.312
NCI-H1395 | 0.445 | 0.456 | 0.444 | 0.47 | 0.868 | 0.799 | 0.781 | 0.923 | 0.877 | 0.976 | 0.722 | 0.756 | 0.77 | 0.688 | 0.782 | 0.74 | 0.776
NCI-H1437 | 0.281 | 0.342 | 0.334 | 0.326 | 0.31 | 0.32 | 0.305 | 0.3 | 0.351 | 0.285 | 0.34 | 0.292 | 0.437 | 0.373 | 0.472 | 0.403 | 0.391
ChaGo-K-1 | 0.499 | 0.517 | 0.541 | 0.5 | 0.256 | 0.252 | 0.258 | 0.265 | 0.238 | 0.305 | 0.25 | 0.39 | 0.228 | 0.218 | 0.212 | 0.232 | 0.22
NCI-H1755 | 0.544 | 0.673 | 0.711 | 0.612 | 0.442 | 0.43 | 0.448 | 0.441 | 0.41 | 0.6 | 0.39 | 0.552 | 0.628 | 0.574 | 0.695 | 0.613 | 0.528
SK-LU-1 | 0.513 | 0.636 | 0.626 | 0.524 | 0.944 | 1.02 | 0.915 | 0.99 | 1.13 | 1.27 | 0.962 | 0.95 | 0.363 | 0.252 | 0.399 | 0.347 | 0.33
HOP-62 | 0.567 | 0.869 | 0.752 | 0.772 | 0.356 | 0.267 | 0.312 | 0.34 | 0.267 | 0.364 | 0.342 | 0.223 | 0.447 | 0.408 | 0.467 | 0.403 | 0.473
NCI-H2228 | 0.339 | 0.388 | 0.458 | 0.37 | 0.344 | 0.361 | 0.325 | 0.346 | 0.408 | 0.331 | 0.396 | 0.325 | 0.282 |  | 0.253 | 0.307 | 0.187
SW 1573 | 0.383 | 0.446 | 0.342 | 0.351 | 0.831 | 0.778 | 0.83 | 0.855 | 0.901 | 1.02 | 0.931 | 0.666 | 0.189 | 0.169 | 0.195 | 0.174 | 0.184
NCI-H2342 | 0.651 | 0.7 | 0.55 | 0.617 | 0.851 | 0.754 | 0.727 | 0.781 | 0.815 | 0.802 | 0.97 | 0.796 | 0.499 | 0.493 | 0.577 | 0.53 | 0.396
PC-14 | 0.575 | 0.535 | 0.809 | 0.583 | 0.13 | 0.139 | 0.126 | 0.179 | 0.121 | 0.134 | 0.145 | 0.134 | 0.646 | 0.536 | 0.568 | 0.556 | 0.452
EMC-BAC-2 | 0.553 | 0.573 | 0.56 | 0.515 | 0.49 | 0.479 | 0.46 | 0.464 | 0.448 | 0.486 | 0.466 | 0.44 | 0.303 | 0.295 | 0.31 | 0.325 | 0.286
NCI-H520 | 0.711 | 0.81 | 0.709 | 0.693 | 0.723 | 0.686 | 0.639 | 0.58 | 0.762 | 0.853 | 0.686 | 0.762 | 0.428 | 0.341 | 0.427 | 0.381 | 0.39
NCI-H2170 | 0.375 | 0.4 | 0.415 | 0.416 | 0.259 | 0.252 | 0.257 | 0.278 | 0.273 | 0.285 | 0.319 | 0.243 | 0.676 | 0.748 | 0.519 | 0.63 | 0.23
